# Structures can show the parent of a compound that is named as a salt.
# Test: Stability experiment: remaining amount of metformin by HPLC after heating
# Format: physicochemical
# Conditions: below pH 3.5
# Experimental: Tasting and stability experiments on the solutions at various pH of Example 13 were carried out, in the same manner as Experiment 1. A stability experiment was carried out by measuring the remaining amount of metformin in the solutions with HPLC after heating the solutions in vials at 60 C. for 2 weeks.
compound,measurement,value
CN(C)C(=N)N=C(N)N [Metformin hydrochloride],stability in solution,not stable

# Reference: patent US6517870B1, “Oral formulation comprising biguanide and an organic acid” (Sumitomo Pharmaceuticals Company, Limited, priority 1998, dated 2003)
